{"source": "paper PMC6112376", "about": "“Comprehensive Analyses and Prioritization of Tox21 10K Chemicals Affecting Mitochondrial Function by in-Depth Mechanistic Studies” (Environmental Health Perspectives, 2018)", "key": {"HepG2 cells [1]": {"test_system": "HepG2 cells", "assay": "ROS-Glo hydrogen peroxide (ROS) assay", "assay_type": "cell-based, human", "conditions": "Homo sapiens, HepG2; 2 h treatment; mean±SD of three experiments; read-out: ROS (HepG2) EC50"}, "HepG2 cells [2]": {"test_system": "HepG2 cells", "assay": "cells", "conditions": "Homo sapiens"}, "[3]": {"test_system": "Caenorhabditis elegans (Bristol N2)", "assay": "C. elegans larval development and growth assay", "conditions": "48 h exposure"}, "HepG2 cells [4]": {"test_system": "HepG2 cells", "assay": "Intracellular ATP content (cell viability) assay", "assay_type": "cell-based, human", "conditions": "40 h treatment, mean±SD of three experiments; for IC50: Homo sapiens, HepG2"}, "[5]": {"test_system": "p53 (p53-bla HCT-116 cells)", "assay": "p53 β-lactamase reporter gene assay", "assay_type": "cell-based, human", "conditions": "16 h incubation; mean±SD of three experiments"}, "[6]": {"test_system": "Nrf2/ARE (ARE-bla HepG2 cells)", "assay": "ARE β-lactamase reporter gene assay", "assay_type": "cell-based, human", "conditions": "16 h incubation, mean±SD of three experiments"}, "hNSC": {"test_system": "hNSC", "assay": "MMP assay in human neural stem cells (hNSC)", "assay_type": "cell-based", "conditions": "Homo sapiens, Neural stem cell; 1 h treatment; fresh re-sourced stocks; mean±SD of three experiments; read-out: hNSC IC50 (MMP)"}, "[7]": {"test_system": "HeLa cells expressing YFP-Parkin", "assay": "Parkin translocation assay", "assay_type": "cell-based, human", "conditions": "HeLa cells stably expressing YFP-Parkin; treated for 2 h"}, "rat primary hepatocytes": {"test_system": "rat primary hepatocytes", "assay": "MMP assay in rat primary hepatocytes", "conditions": "for Rat hepatocytes (efficacy) (MMP): % of positive control, mean±SD of three experiments; for IC50: Rattus norvegicus, Hepatocyte"}, "HepG2 cells [8]": {"test_system": "HepG2 cells", "conditions": "cited from earlier work"}, "[9]": {"test_system": "isolated rat liver mitochondria", "assay": "Oxygen consumption, Clark-type oxygen electrode", "assay_type": "biochemical", "conditions": "for I-ADP, % of control (O2 consumption rate): glutamate/malate driven state 3 respiration; for I-ADP, % of control (O2 consumption rate) / I-sub, % of control (O2 consumption rate) / II-ADP, % of control (O2 consumption rate) / II-sub, % of control (O2 consumption rate): isolated rat liver mitochondria; for I-sub, % of control (O2 consumption rate): glutamate/malate driven state 4 respiration; for II-ADP, % of control (O2 consumption rate): succinate-driven state 3 respiration; for II-sub, % of control (O2 consumption rate): succinate-driven state 4 respiration"}, "[10]": {"test_system": "Caenorhabditis elegans strain PE255", "assay": "In vivo C. elegans ATP status assay"}, "[11]": {"conditions": "HepG2, 1 h, read-out: HepG2 IC50 Galactose (MMP)"}, "[12]": {"conditions": "HepG2, 1 h, read-out: HepG2 IC50 Glucose (MMP)"}, "[13]": {"conditions": "1 h, read-out: Rat hepatocytes IC50 (MMP)"}}, "note": "Where two headings read alike, the source gives them in different places.", "data": [{"compound": "CCc1cc(Cc2cc(CC)cc(C(C)(C)C)c2O)c(O)c(C(C)(C)C)c1", "values": [{"measurement": "EC50", "setting": "HepG2 cells [1]", "value": "29.6 ± 4.08", "unit": "µM"}, {"measurement": "IC50", "setting": "HepG2 cells [2]; [11]", "value": "6.3 ± 0.43", "unit": "µM"}, {"measurement": "IC50", "setting": "HepG2 cells [2]; [12]", "value": "5.42 ± 0.62", "unit": "µM"}, {"measurement": "LEC (lowest effect concentration), larval growth assay", "setting": "[3]", "value": "≤ 10", "unit": "µM"}, {"measurement": "IC50", "setting": "HepG2 cells [4]; 5 mM glucose, read-out: ATP (HepG2, glucose) IC50", "value": "21.6 ± 13.8", "unit": "µM"}, {"measurement": "IC50", "setting": "HepG2 cells [4]; 10 mM galactose, read-out: ATP (HepG2, galactose) IC50", "value": "29.8 ± 7.25", "unit": "µM"}, {"measurement": "p53 (HCT-116) EC50", "setting": "[5]", "value": "Inactive"}, {"measurement": "ARE (HepG2) EC50", "setting": "[6]", "value": "Inactive"}, {"measurement": "IC50", "setting": "hNSC", "value": "1.28 ± 0.56", "unit": "µM"}, {"measurement": "Parkin recruitment", "setting": "[7]", "value": "Inactive"}, {"measurement": "Rat hepatocytes (efficacy) (MMP)", "setting": "rat primary hepatocytes", "value": "−103±17.9", "unit": "%"}, {"measurement": "IC50", "setting": "rat primary hepatocytes; [13]", "value": "29.9 ± 7.25", "unit": "µM"}]}, {"compound": "O=C(O)c1cccnc1Nc1cccc(C(F)(F)F)c1", "note": "[Niflumic acid, reference compound]", "values": [{"measurement": "EC50", "setting": "HepG2 cells [1]", "value": "6.35 ± 2.16", "unit": "µM"}, {"measurement": "MMP assays efficacy (%) qHTS-HepG2", "setting": "HepG2 cells [8]", "value": "-113±5", "unit": "%"}, {"measurement": "IC50", "setting": "HepG2 cells [8]; read-out: MMP assays IC50 (µM), qHTS-HepG2", "value": "13 ± 2.17", "unit": "µM"}, {"measurement": "IC50", "setting": "HepG2 cells [2]; [11]", "value": 42.8, "unit": "µM"}, {"measurement": "IC50", "setting": "HepG2 cells [2]; [12]", "value": "44.6 ± 3.02", "unit": "µM"}, {"measurement": "IC50", "setting": "HepG2 cells [2]; HepG2, read-out: MMP assays IC50 (µM) HepG2", "value": 15.5, "unit": "µM"}, {"measurement": "Emax", "setting": "HepG2 cells [2]; HepG2, read-out: MMP assays efficacy (%) HepG2", "value": 114, "unit": "%"}, {"measurement": "effect on larval growth (in words)", "setting": "[3]; 0.5–100μM", "value": "did not affect growth"}, {"measurement": "ATP (HepG2, glucose) IC50", "setting": "HepG2 cells [4]; 5 mM glucose", "value": "Inactive"}, {"measurement": "ATP (HepG2, galactose) IC50", "setting": "HepG2 cells [4]; 10 mM galactose", "value": "Inactive"}, {"measurement": "I-ADP, % of control (O2 consumption rate)", "setting": "[9]; 0.032 µM", "value": "91 (32.6) % of control"}, {"measurement": "I-sub, % of control (O2 consumption rate)", "setting": "[9]; 0.032 µM", "value": "116 (11.1) % of control"}, {"measurement": "II-ADP, % of control (O2 consumption rate)", "setting": "[9]; 0.032 µM", "value": "90 (48.1) % of control"}, {"measurement": "II-sub, % of control (O2 consumption rate)", "setting": "[9]; 0.032 µM", "value": "110 (18.1) % of control"}, {"measurement": "I-ADP, % of control (O2 consumption rate)", "setting": "[9]; 0.16 µM", "value": "82 (29.2) % of control"}, {"measurement": "I-sub, % of control (O2 consumption rate)", "setting": "[9]; 0.16 µM", "value": "111 (10.7) % of control"}, {"measurement": "II-ADP, % of control (O2 consumption rate)", "setting": "[9]; 0.16 µM", "value": "101 (54.0) % of control"}, {"measurement": "II-sub, % of control (O2 consumption rate)", "setting": "[9]; 0.16 µM", "value": "124 (20.4) % of control"}, {"measurement": "I-ADP, % of control (O2 consumption rate)", "setting": "[9]; 0.8 µM", "value": "91 (32.5) % of control"}, {"measurement": "I-sub, % of control (O2 consumption rate)", "setting": "[9]; 0.8 µM", "value": "131 (12.6) % of control"}, {"measurement": "II-ADP, % of control (O2 consumption rate)", "setting": "[9]; 0.8 µM", "value": "89 (47.6) % of control"}, {"measurement": "II-sub, % of control (O2 consumption rate)", "setting": "[9]; 0.8 µM", "value": "135 (22.1) % of control"}, {"measurement": "I-ADP, % of control (O2 consumption rate)", "setting": "[9]; 4 µM", "value": "86 (30.8) % of control"}, {"measurement": "I-sub, % of control (O2 consumption rate)", "setting": "[9]; 4 µM", "value": "180 (17.3) % of control"}, {"measurement": "II-ADP, % of control (O2 consumption rate)", "setting": "[9]; 4 µM", "value": "96 (51.1) % of control"}, {"measurement": "II-sub, % of control (O2 consumption rate)", "setting": "[9]; 4 µM", "value": "221 (36.2) % of control"}, {"measurement": "I-ADP, % of control (O2 consumption rate)", "setting": "[9]; 20 µM", "value": "101 (36.0) % of control"}, {"measurement": "I-sub, % of control (O2 consumption rate)", "setting": "[9]; 20 µM", "value": "380 (36.5) % of control"}, {"measurement": "II-ADP, % of control (O2 consumption rate)", "setting": "[9]; 20 µM", "value": "54 (28.9) % of control"}, {"measurement": "II-sub, % of control (O2 consumption rate)", "setting": "[9]; 20 µM", "value": "195 (32.0) % of control"}, {"measurement": "I-ADP, % of control (O2 consumption rate)", "setting": "[9]; 100 µM", "value": "70 (32.1) % of control"}, {"measurement": "I-sub, % of control (O2 consumption rate)", "setting": "[9]; 100 µM", "value": "234 (36.2) % of control"}, {"measurement": "II-ADP, % of control (O2 consumption rate)", "setting": "[9]; 100 µM", "value": "23 (16.4) % of control"}, {"measurement": "II-sub, % of control (O2 consumption rate)", "setting": "[9]; 100 µM", "value": "56 (17.7) % of control"}, {"measurement": "Potential Mechanism", "setting": "[9]; mitochondrial respiration in isolated rat liver mitochondria, Clark type oxygen electrode, over tested concentrations", "value": "Uncoupler at low concentrations (0.16-4 µM), and Uncoupler + inhibitor at high concentrations ( 20-100 µM)"}, {"measurement": "EC50", "setting": "[6]; Homo sapiens, HepG2, read-out: ARE (HepG2) EC50", "value": "25.1 ± 2.05", "unit": "µM"}, {"measurement": "IC50", "setting": "hNSC", "value": "38.3 ± 4.41", "unit": "µM"}, {"measurement": "Parkin recruitment", "setting": "[7]", "value": "Inactive"}, {"measurement": "Rat hepatocytes (efficacy) (MMP)", "setting": "rat primary hepatocytes", "value": "−98.8±9.27", "unit": "%"}, {"measurement": "IC50", "setting": "rat primary hepatocytes; [13]", "value": "19.9 ± 1.35", "unit": "µM"}, {"measurement": "IC50", "setting": "rat primary hepatocytes; read-out: MMP assays IC50 (µM) Rat Hepatocytes", "value": "6.71 ± 1.14", "unit": "µM"}, {"measurement": "MMP assays efficacy (%) Rat Hepatocytes", "setting": "rat primary hepatocytes; rat hepatocytes, mean ± SD of three experiments", "value": "-127±56", "unit": "%"}, {"measurement": "effect on ATP content (in words)", "setting": "[10]; 0.5–100μM, 24 h exposure", "value": "statistically significant decreases in ATP content"}, {"measurement": "minimal effective concentration", "setting": "[10]; Caenorhabditis elegans, read-out: LEC LUM: lowest effect concentration for luminescence, a measure of nematode ATP content", "value": 100, "unit": "µM"}]}]}
